This is an account of results in US8975398B2, “NAMPT inhibitors” (AbbVie Inc., priority 2012, dated 2015).

Experiment [1] deals with NAMPT (human, recombinant, C-terminally His-tagged) (Homo sapiens, UniProt P43490). Kind of experiment: Time-Resolved Fluorescence Resonance Energy Transfer (TR-FRET) Binding Assay of NAMPT. Conditions: 6.8 nM NAMPT, 200 nM probe, equilibrated 3 hours, absence of substrates. In short, it runs like this:
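Recombinant C-terminally His-tagged human NAMPT (6.8 nM) incubated 3 h at room temperature with 200 nM Oregon Green 488–labelled nicotinamide-competitive probe and 1 nM Tb-anti-His antibody in HEPES pH 7.5, 2% DMSO. TR-FRET ratio Em520/Em495 normalized to controls; IC50 from four-parameter logistic fit.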

Another experiment concerns the target NAMPT (Homo sapiens, UniProt P43490). Briefly: Time-Resolved Fluorescence Resonance Energy Transfer (TR-FRET) Binding Assay of NAMPT with PRPP. To be noted: 2 nM NAMPT, 2 nM probe, 200 uM PRPP and 2.5 mM ATP, equilibrated 16 hours. In short, it runs like this:
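Final mix: 2 nM NAMPT, 2 nM probe, 1 nM Tb-anti-His antibody, 200 uM PRPP, 2.5 mM ATP, 2% DMSO in 1× assay buffer. Equilibrated 16 hours before TR-FRET read, allowing possible enzymatic modification of compounds.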

Sequence of NAMPT (P43490 whole entry): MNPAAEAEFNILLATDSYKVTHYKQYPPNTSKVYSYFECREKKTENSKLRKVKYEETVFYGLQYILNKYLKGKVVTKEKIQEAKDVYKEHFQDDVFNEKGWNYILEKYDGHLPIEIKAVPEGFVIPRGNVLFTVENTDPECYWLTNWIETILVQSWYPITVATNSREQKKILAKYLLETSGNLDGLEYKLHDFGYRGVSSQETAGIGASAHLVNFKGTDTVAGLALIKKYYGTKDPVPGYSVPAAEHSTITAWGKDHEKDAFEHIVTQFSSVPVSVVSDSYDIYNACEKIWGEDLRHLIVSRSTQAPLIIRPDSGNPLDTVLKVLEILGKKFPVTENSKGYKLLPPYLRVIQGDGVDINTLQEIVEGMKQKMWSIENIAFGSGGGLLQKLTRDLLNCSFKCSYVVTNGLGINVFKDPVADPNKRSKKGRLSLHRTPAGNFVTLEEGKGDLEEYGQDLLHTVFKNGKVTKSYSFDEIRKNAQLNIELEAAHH
Sequence of NAMPT (human, recombinant, C-terminally His-tagged) (P43490 whole entry): as above

With `O=C(Nc1ccc(C2CCN(C(=O)CC3CCCC3)CC2)cc1)C1CN(c2cccnc2)C1` [Example 101, N-{4-[1-(cyclopentylacetyl)piperidin-4-yl]phenyl}-1-(pyridin-3-yl)azetidine-3-carboxamide], the IC50 in experiment [1] amounted to 16.5 nM; at NAMPT it was 0.486 nM.

As for `CC1CC1C(=O)N1CCC(c2ccc(NC(=O)C3CN(c4cccnc4)C3)cc2)CC1` (stereo not drawn) [Example 102, N-(4-{1-[(2-methylcyclopropyl)carbonyl]piperidin-4-yl}phenyl)-1-(pyridin-3-yl)azetidine-3-carboxamide], the figures for the IC50 (in experiment [1]; on NAMPT) were 8.84 nM and 0.21 nM, respectively.

For `O=C(Nc1ccc(C2CCN(C(=O)CN3CCOCC3)CC2)cc1)C1CN(c2cccnc2)C1` [Example 103, N-{4-[1-(morpholin-4-ylacetyl)piperidin-4-yl]phenyl}-1-(pyridin-3-yl)azetidine-3-carboxamide], the figures for the IC50 (in experiment [1]; at NAMPT) were 56.2 nM and 0.493 nM, respectively.

Take `O=C(Nc1ccc(C2CCN(C(=O)c3ccoc3)CC2)cc1)C1CN(c2cccnc2)C1` [Example 104, N-{4-[1-(furan-3-ylcarbonyl)piperidin-4-yl]phenyl}-1-(pyridin-3-yl)azetidine-3-carboxamide]: the IC50 is 1.2 nM in experiment [1] and 0.193 nM at NAMPT.

In the case of `O=C(Nc1ccc(C2CCN(C(=O)CN3CCCC3)CC2)cc1)C1CN(c2cccnc2)C1` [Example 105, 1-(pyridin-3-yl)-N-{4-[1-(pyrrolidin-1-ylacetyl)piperidin-4-yl]phenyl}azetidine-3-carboxamide], the half-inhibitory concentration (IC50) came out at 296 nM in experiment [1] and 0.244 nM at NAMPT.

Turning to `O=C1CC[C@H](C(=O)N2CCC(c3ccc(NC(=O)C4CN(c5cccnc5)C4)cc3)CC2)N1` [Example 106, N-{4-[1-(5-oxo-D-prolyl)piperidin-4-yl]phenyl}-1-(pyridin-3-yl)azetidine-3-carboxamide], the IC50 in experiment [1] stood at 160 nM; on NAMPT, 0.221 nM.

Turning to `CN(C)CCC(=O)N1CCC(c2ccc(NC(=O)C3CN(c4cccnc4)C3)cc2)CC1` [Example 107, N-{4-[1-(N,N-dimethyl-beta-alanyl)piperidin-4-yl]phenyl}-1-(pyridin-3-yl)azetidine-3-carboxamide], the IC50 in experiment [1] worked out at 163 nM; at NAMPT it was 0.169 nM.

Take `O=C(Nc1ccc(C2CCN(C(=O)c3nccs3)CC2)cc1)C1CN(c2cccnc2)C1` [Example 108, 1-(pyridin-3-yl)-N-{4-[1-(1,3-thiazol-2-ylcarbonyl)piperidin-4-yl]phenyl}azetidine-3-carboxamide]: the IC50 in experiment [1] came out at 3.33 nM; on NAMPT, 0.176 nM.

In the case of `O=C(Nc1ccc(C2CCN(C(=O)c3ccsc3)CC2)cc1)C1CN(c2cccnc2)C1` [Example 109, 1-(pyridin-3-yl)-N-{4-[1-(thiophen-3-ylcarbonyl)piperidin-4-yl]phenyl}azetidine-3-carboxamide], the IC50 was 5.03 nM in experiment [1] and 0.398 nM on NAMPT.

Regarding `CC1(C(=O)N2CCC(c3ccc(NC(=O)C4CN(c5cccnc5)C4)cc3)CC2)CC1` [Example 110, N-(4-{1-[(1-methylcyclopropyl)carbonyl]piperidin-4-yl}phenyl)-1-(pyridin-3-yl)azetidine-3-carboxamide], the IC50 is 6.63 nM in experiment [1] and 0.169 nM on NAMPT.

Take `Cc1ccsc1C(=O)N1CCC(c2ccc(NC(=O)C3CN(c4cccnc4)C3)cc2)CC1` [Example 111, N-(4-{1-[(3-methylthiophen-2-yl)carbonyl]piperidin-4-yl}phenyl)-1-(pyridin-3-yl)azetidine-3-carboxamide]: the figures for the IC50 (in experiment [1]; on NAMPT) were 2.84 nM and 0.199 nM, respectively.

Consider `O=C(Nc1ccc(C2CCN(C(=O)CCC(F)(F)F)CC2)cc1)C1CN(c2cccnc2)C1` [Example 112, 1-(pyridin-3-yl)-N-{4-[1-(4,4,4-trifluorobutanoyl)piperidin-4-yl]phenyl}azetidine-3-carboxamide], for which the figures for the IC50 (in experiment [1]; on NAMPT) were 40.2 nM and 0.362 nM, respectively.
